# Where a SMILES comes first, the peptide text is derived from it.
# Target: T1, rh integrin α4β7 (Homo sapiens, UniProt P13612+P26010)
# T1 construct: purchased R&D Systems 5397-A30
# T1 sequence (P13612 34-977 limits assumed): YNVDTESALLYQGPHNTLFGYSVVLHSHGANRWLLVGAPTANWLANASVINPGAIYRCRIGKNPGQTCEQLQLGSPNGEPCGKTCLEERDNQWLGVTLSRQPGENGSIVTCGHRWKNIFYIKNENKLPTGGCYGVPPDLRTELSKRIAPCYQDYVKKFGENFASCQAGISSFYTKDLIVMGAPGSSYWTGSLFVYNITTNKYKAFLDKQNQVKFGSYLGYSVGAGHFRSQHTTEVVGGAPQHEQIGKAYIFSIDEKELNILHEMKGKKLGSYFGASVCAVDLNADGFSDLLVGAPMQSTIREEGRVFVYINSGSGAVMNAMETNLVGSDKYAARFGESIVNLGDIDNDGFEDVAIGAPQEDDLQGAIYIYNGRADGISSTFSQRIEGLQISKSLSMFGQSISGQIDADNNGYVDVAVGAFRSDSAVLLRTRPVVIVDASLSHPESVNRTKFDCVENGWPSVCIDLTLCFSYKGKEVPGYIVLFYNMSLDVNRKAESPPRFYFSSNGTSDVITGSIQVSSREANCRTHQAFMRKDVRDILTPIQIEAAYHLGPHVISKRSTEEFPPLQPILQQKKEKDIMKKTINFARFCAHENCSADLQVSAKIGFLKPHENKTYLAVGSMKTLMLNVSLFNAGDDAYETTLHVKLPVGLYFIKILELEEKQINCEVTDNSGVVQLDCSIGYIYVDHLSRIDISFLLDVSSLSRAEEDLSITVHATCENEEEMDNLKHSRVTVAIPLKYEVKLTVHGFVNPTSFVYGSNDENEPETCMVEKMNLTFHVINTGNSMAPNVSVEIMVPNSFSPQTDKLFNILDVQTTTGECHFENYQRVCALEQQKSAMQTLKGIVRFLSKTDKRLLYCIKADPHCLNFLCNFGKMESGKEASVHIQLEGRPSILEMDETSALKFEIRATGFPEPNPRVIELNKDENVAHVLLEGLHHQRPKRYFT
# T1 sequence (P26010 20-723 limits assumed): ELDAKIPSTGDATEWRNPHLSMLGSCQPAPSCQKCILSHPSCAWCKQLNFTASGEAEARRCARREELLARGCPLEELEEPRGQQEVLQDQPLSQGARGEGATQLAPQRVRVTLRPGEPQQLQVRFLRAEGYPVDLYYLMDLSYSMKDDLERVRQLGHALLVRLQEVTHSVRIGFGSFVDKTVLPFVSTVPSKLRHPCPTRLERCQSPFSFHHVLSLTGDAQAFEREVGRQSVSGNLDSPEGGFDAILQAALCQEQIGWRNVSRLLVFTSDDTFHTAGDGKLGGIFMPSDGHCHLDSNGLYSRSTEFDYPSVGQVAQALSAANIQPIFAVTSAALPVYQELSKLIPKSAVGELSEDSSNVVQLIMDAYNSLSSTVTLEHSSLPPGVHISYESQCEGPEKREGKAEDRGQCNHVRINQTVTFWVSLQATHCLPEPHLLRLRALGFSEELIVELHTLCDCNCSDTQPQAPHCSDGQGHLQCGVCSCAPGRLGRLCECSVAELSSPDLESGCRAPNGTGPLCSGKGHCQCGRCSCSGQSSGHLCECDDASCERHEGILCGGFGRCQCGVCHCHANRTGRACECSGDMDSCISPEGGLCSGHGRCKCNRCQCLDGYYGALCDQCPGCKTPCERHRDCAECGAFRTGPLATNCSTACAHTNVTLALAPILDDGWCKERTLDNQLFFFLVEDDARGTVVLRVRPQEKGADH
# Test: α4β7-MAdCAM Competition ELISA
# Assay type: binding
# Settings: thioether monomer peptides, Table 6; read-out: ELISA A4B7
# Summary of the method: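 Recombinant human α4β7 captured on nickel-coated plates, then incubated 1 h at room temperature with serially diluted peptides (final top 10 μM) and 10 nM final MAdCAM-1 in Tris pH 7.6 buffer with 1 mM MnCl2 or MgCl2. Bound MAdCAM-1 detected with anti-human IgG1-HRP and TMB, absorbance at 450 nm.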
row,SMILES,IC50 [nM]
1,"CC(C)C[C@@H]1NC(=O)[C@H]([C@@H](C)O)NC(=O)[C@H](CC(=O)O)NC(=O)[C@H](CO)NC(=O)[C@H](CCCNC(=N)N)N(C)C(=O)c2ccccc2CSC(C)(C)[C@@H](C(=O)N[C@@H](Cc2c[nH]c3ccccc23)C(=O)N[C@H](CCC(=O)O)C(=O)N[C@@H](CO)C(N)=O)NC1=O [compound 100] (HELM PEPTIDE1{[meR].S.D.T.L.[Pen].W.[dE].S.[am]}|CHEM1{[O=C(c1ccccc1C[*:2])[*:1]]}$PEPTIDE1,CHEM1,1:R1-1:R1|PEPTIDE1,CHEM1,6:R3-1:R2$$$V2.0)",< 25
2,"CC(C)C[C@@H]1NC(=O)[C@H]([C@@H](C)O)NC(=O)[C@H](CC(=O)O)NC(=O)[C@H](CO)NC(=O)[C@H](CCCNC(=N)N)N(C)C(=O)c2ccccc2CSC(C)(C)[C@@H](C(=O)N[C@@H](Cc2c[nH]c3ccccc23)C(=O)N[C@H](CCC(=O)O)C(=O)N[C@@H](Cc2ccccc2)C(N)=O)NC1=O [compound 101] (HELM PEPTIDE1{[meR].S.D.T.L.[Pen].W.[dE].F.[am]}|CHEM1{[O=C(c1ccccc1C[*:2])[*:1]]}$PEPTIDE1,CHEM1,1:R1-1:R1|PEPTIDE1,CHEM1,6:R3-1:R2$$$V2.0)",< 25
3,"CC(C)C[C@@H]1NC(=O)[C@H]([C@@H](C)O)NC(=O)[C@H](CC(=O)O)NC(=O)[C@H](CO)NC(=O)[C@H](CCCNC(=N)N)N(C)C(=O)c2ccccc2CSC(C)(C)[C@@H](C(=O)N[C@@H](Cc2c[nH]c3ccccc23)C(=O)N[C@H](CCC(=O)O)C(=O)N[C@@H](Cc2c[nH]cn2)C(N)=O)NC1=O [compound 102] (HELM PEPTIDE1{[meR].S.D.T.L.[Pen].W.[dE].H.[am]}|CHEM1{[O=C(c1ccccc1C[*:2])[*:1]]}$PEPTIDE1,CHEM1,1:R1-1:R1|PEPTIDE1,CHEM1,6:R3-1:R2$$$V2.0)",< 25
4,"CC(C)C[C@@H]1NC(=O)[C@H]([C@@H](C)O)NC(=O)[C@H](CC(=O)O)NC(=O)[C@H](CO)NC(=O)[C@H](CCCNC(=N)N)N(C)C(=O)c2ccccc2CSC(C)(C)[C@@H](C(=O)N[C@@H](Cc2c[nH]c3ccccc23)C(=O)N[C@H](CCC(=O)O)C(=O)N[C@@H](Cc2ccc(O)cc2)C(N)=O)NC1=O [compound 104] (HELM PEPTIDE1{[meR].S.D.T.L.[Pen].W.[dE].Y.[am]}|CHEM1{[O=C(c1ccccc1C[*:2])[*:1]]}$PEPTIDE1,CHEM1,1:R1-1:R1|PEPTIDE1,CHEM1,6:R3-1:R2$$$V2.0)",< 25
5,"CC(C)C[C@@H]1NC(=O)[C@H]([C@@H](C)O)NC(=O)[C@H](CC(=O)O)NC(=O)[C@H](CO)NC(=O)[C@H](CCCNC(=N)N)N(C)C(=O)c2ccccc2CSC(C)(C)[C@@H](C(=O)N[C@@H](Cc2c[nH]c3ccccc23)C(=O)N[C@H](CCC(=O)O)C(=O)N[C@H](CO)C(N)=O)NC1=O [compound 106] (HELM PEPTIDE1{[meR].S.D.T.L.[Pen].W.[dE].[dS].[am]}|CHEM1{[O=C(c1ccccc1C[*:2])[*:1]]}$PEPTIDE1,CHEM1,1:R1-1:R1|PEPTIDE1,CHEM1,6:R3-1:R2$$$V2.0)",< 25
6,"CC(C)C[C@@H]1NC(=O)[C@H]([C@@H](C)O)NC(=O)[C@H](CC(=O)O)NC(=O)[C@H](CO)NC(=O)[C@H](CCCNC(=N)N)N(C)C(=O)c2ccccc2CSC(C)(C)[C@@H](C(=O)N[C@@H](Cc2c[nH]c3ccccc23)C(=O)N[C@H](CCC(=O)O)C(=O)N[C@H](Cc2ccccc2)C(N)=O)NC1=O [compound 107] (HELM PEPTIDE1{[meR].S.D.T.L.[Pen].W.[dE].[dF].[am]}|CHEM1{[O=C(c1ccccc1C[*:2])[*:1]]}$PEPTIDE1,CHEM1,1:R1-1:R1|PEPTIDE1,CHEM1,6:R3-1:R2$$$V2.0)",< 25
7,"CC(C)C[C@@H]1NC(=O)[C@H]([C@@H](C)O)NC(=O)[C@H](CC(=O)O)NC(=O)[C@H](CO)NC(=O)[C@H](CCCNC(=N)N)N(C)C(=O)c2ccccc2CSC(C)(C)[C@@H](C(=O)N[C@@H](Cc2c[nH]c3ccccc23)C(=O)N[C@H](CCC(=O)O)C(=O)N[C@H](CCC(=O)O)C(N)=O)NC1=O [compound 108] (HELM PEPTIDE1{[meR].S.D.T.L.[Pen].W.[dE].[dE].[am]}|CHEM1{[O=C(c1ccccc1C[*:2])[*:1]]}$PEPTIDE1,CHEM1,1:R1-1:R1|PEPTIDE1,CHEM1,6:R3-1:R2$$$V2.0)",< 25
8,"CC(C)C[C@@H]1NC(=O)[C@H]([C@@H](C)O)NC(=O)[C@H](CC(=O)O)NC(=O)[C@H](CO)NC(=O)[C@H](CCCNC(=N)N)N(C)C(=O)c2ccccc2CSC(C)(C)[C@@H](C(=O)N[C@@H](Cc2c[nH]c3ccccc23)C(=O)N[C@H](CCC(=O)O)C(=O)N[C@H](Cc2ccc(O)cc2)C(N)=O)NC1=O [compound 110] (HELM PEPTIDE1{[meR].S.D.T.L.[Pen].W.[dE].[dY].[am]}|CHEM1{[O=C(c1ccccc1C[*:2])[*:1]]}$PEPTIDE1,CHEM1,1:R1-1:R1|PEPTIDE1,CHEM1,6:R3-1:R2$$$V2.0)",< 25
9,"CC(C)C[C@@H]1NC(=O)[C@H]([C@@H](C)O)NC(=O)[C@H](CC(=O)O)NC(=O)[C@H](CO)NC(=O)[C@H](CCCNC(=N)N)N(C)C(=O)c2ccccc2CSC(C)(C)[C@@H](C(=O)N[C@@H](Cc2c[nH]c3ccccc23)C(=O)N[C@H](CCC(=O)O)C(=O)N[C@@H](CCC(=O)O)C(N)=O)NC1=O [compound 113] (HELM PEPTIDE1{[meR].S.D.T.L.[Pen].W.[dE].E.[am]}|CHEM1{[O=C(c1ccccc1C[*:2])[*:1]]}$PEPTIDE1,CHEM1,1:R1-1:R1|PEPTIDE1,CHEM1,6:R3-1:R2$$$V2.0)",< 25
10,"CC(C)C[C@@H]1NC(=O)[C@H]([C@@H](C)O)NC(=O)[C@H](CC(=O)O)NC(=O)[C@H](CO)NC(=O)[C@H](CCCNC(=N)N)N(C)C(=O)c2ccccc2CSC(C)(C)[C@@H](C(=O)N[C@@H](Cc2ccc3ccccc3c2)C(=O)N[C@H](CCC(=O)O)C(N)=O)NC1=O [compound 114] (HELM PEPTIDE1{[meR].S.D.T.L.[Pen].[O=C([C@H](Cc1ccc2ccccc2c1)N[*:1])[*:2]].[dE].[am]}|CHEM1{[O=C(c1ccccc1C[*:2])[*:1]]}$PEPTIDE1,CHEM1,1:R1-1:R1|PEPTIDE1,CHEM1,6:R3-1:R2$$$V2.0)",< 25
11,"CC(C)C[C@@H]1NC(=O)[C@H]([C@@H](C)O)NC(=O)[C@H](CC(=O)O)NC(=O)[C@H](CO)NC(=O)[C@H](CCCNC(=N)N)N(C)C(=O)c2ccccc2CSC(C)(C)[C@@H](C(=O)N[C@@H](Cc2ccc3ccccc3c2)C(N)=O)NC1=O [compound 116] (HELM PEPTIDE1{[meR].S.D.T.L.[Pen].[O=C([C@H](Cc1ccc2ccccc2c1)N[*:1])[*:2]].[am]}|CHEM1{[O=C(c1ccccc1C[*:2])[*:1]]}$PEPTIDE1,CHEM1,1:R1-1:R1|PEPTIDE1,CHEM1,6:R3-1:R2$$$V2.0)",< 25

# Same assay, conditions: thioether peptide dimers, Table 7; read-out: ELISA A4B7
row,SMILES,IC50 [nM]
1,CC(C)C[C@@H]1NC(=O)[C@H]([C@@H](C)O)NC(=O)[C@H](CC(=O)O)NC(=O)[C@H](CO)NC(=O)[C@H](CCCNC(=N)N)N(C)C(=O)CSC[C@@H](C(=O)N[C@@H](Cc2c[nH]c3ccccc23)C(=O)N[C@H](CCCCNC(=O)COCC(=O)NCCCC[C@@H](NC(=O)[C@H](Cc2c[nH]c3ccccc23)NC(=O)[C@@H]2CSCC(=O)N(C)[C@@H](CCCNC(=N)N)C(=O)N[C@@H](CO)C(=O)N[C@@H](CC(=O)O)C(=O)N[C@@H]([C@@H](C)O)C(=O)N[C@@H](CC(C)C)C(=O)N2)C(N)=O)C(N)=O)NC1=O [compound 143],< 25

# From US20260217767A1, “NOVEL A4B7 THIOETHER PEPTIDE DIMER ANTAGONISTS” (Protagonist Therapeutics, Inc., priority 2014, published 2026)
